The values below come from a melting point compilation (Tetko et al.; mined from patent text by program, amines drawn as free bases though some values may be those of a salt).

A value given as a limit tells only on which side of the number the result lay.

A word on the melting point: it is the temperature of the solid-liquid transition.

Compound `COCC(=O)Nc1nc(N)nc(NC2CC2)n1` displayed a melting point of 152 to 157 °C.
`Cc1ccc(-c2cccc(/C=C/C(=O)O)c2)cc1` registered a melting point of 186 to 187 °C.
In the case of `O=C1CCCc2c1ccc(OCc1ccccc1)c2CBr`, the melting point was in the range of 103 to 104 °C.
In the case of `CCCCC(=N)NC(=O)Nc1ccc(N)cc1`, the melting point was in the range of 102 to 103 °C.
Under `OC1CSC(Oc2ccccc2-c2nc3ccccc3s2)C(O)C1O` (configuration not stated) stands 196 °C; under `COc1ccc(-c2[nH]nc3c2C(=O)c2c(NC(=O)Cc4ccc(OC)c(OC)c4)cccc2-3)cc1`, over 300 °C.
Under `CN(CC(=O)O)[C@H]1CC[C@H](Nc2ncc3ncnc(Nc4ccc(F)c(Cl)c4)c3n2)CC1` stands 220 to 228 °C; under `COC(=O)C1=C(C)NC(C)=C(C(=O)OCCCBr)C1c1cccc([N+](=O)[O-])c1` (configuration not stated), 112 to 114 °C.
In turn, `CCOC(=O)Cc1cnc2c(NC(=O)c3c(Cl)cccc3Cl)cccc2c1` had a melting point of 151 °C.
Under `Cc1cc(C)c(NC(=S)C2(C)CCc3c(C)c(O)c(C)c(C)c3O2)cc1C` (configuration not stated) stands 124 to 125 °C; under `CCCCCCCCN(C[C@H]1CC[C@@H](CN(CCCCCCCC)C(=O)Nc2ccc(N(C)C)cc2)CC1)C(=O)Nc1ccc(N(C)C)cc1`, 105 to 107 °C.
Under `O=c1[nH]c2cc(Cl)ccc2n1CCCO` stands 149 °C; under `Cc1[nH]c(-c2ccccc2)c(N)c1C(=O)C(C)C`, 180 to 183 °C.
Take `CC12CCCC1C1CCc3cc(F)ccc3C1CC2` (configuration not stated): the melting point stood at 178 °C.
Under `CC1(C)Nc2ncc(-c3ccc(C(=O)N4CCC[C@H]4CN4CCCC4)cc3)cc2N(Cc2cc(F)ccc2F)C1=O` stands 171 to 172 °C; under `CCCc1c(OCC(O)COc2ccc3c(C)c(CC(=O)O)c(=O)oc3c2)ccc(C(C)=O)c1O` (configuration not stated), 130 °C; under `COc1cc2ncc(NC3CCCCC3)nc2cc1OC`, 149 to 151 °C.
Under `CC(C)(C)C1=CC(=Cc2ccc([N+](=O)[O-])cc2)C=C(C(C)(C)C)C1=O` stands 162 to 163 °C.
In the case of `N#CN=C1NCCN1CC#CCNC(=O)C(O)(c1ccccc1)C1CCCCC1` (configuration not stated), the melting point is 207 to 210 °C.
On to `CC(=O)SCCC(=O)NC1(C(=O)O)CCCC1`, for which the melting point was 127 to 128 °C.
`CCCC(Oc1ccccc1)C(=O)NCCO[N+](=O)[O-]` (configuration not stated) gave a melting point of 68 to 70 °C.
In the case of `O=C(CCc1ccccc1)Nc1ccc(C(=O)NN=C2C(=O)Nc3ccc(I)cc32)cc1`, the melting point was 297 °C.
The compound `CC(c1ccc(F)c(F)c1F)n1ncc(-c2ccc(S(N)(=O)=O)cc2)c(-c2ccc(F)cc2)c1=O` (configuration not stated) came in with a melting point of 192 to 194 °C.
Take `CCc1c(C)c(NC(=O)CC(C)(C)C)c(C)c2c1SCC2c1ccc(C(C)C)cc1` (configuration not stated): the melting point lay within 172 to 173 °C.
As to `Cc1[nH]cnc1/C=C/C(=O)c1cc2ccccc2s1`, the melting point was in the range of 188 to 190 °C.
Take `O=C(O)C(O)c1ccc2nc(-c3ccc(Cl)cc3)oc2c1` (configuration not stated): the melting point lay within 222 to 224 °C.
For `Nc1ccc2c(c1)C(=O)N(CCO)C2=O`, the melting point was in the range of 171 to 173 °C.
Under `CC(C)n1nc(-c2sc(NC(=O)c3cccc(C(F)(F)F)c3)nc2-c2ccccc2)ccc1=O` stands 237 to 238 °C; under `CN(C)CC1CCCCN1CC(=O)N1c2ccccc2NC(=O)c2cscc21` (configuration not stated), 208 to 209 °C.
The compound `COc1cccc(NC(=O)NC(C(C)C)C2CCN(Cc3ccc(Cl)c(Cl)c3)CC2)c1` (racemic) yielded a melting point of 161 to 162 °C.
`C[C@@H]1CCCN1CCCOc1ccc2c(c1)CCc1cc(=O)[nH]nc1-2`: the melting point fell in the range of 289 to 292 °C.
`COC(=O)c1cc(N)c(Cl)c(S(=O)(=O)n2cccc2)c1` showed a melting point of 178 to 181 °C.
Under `CN1CCC(NC(=O)c2cccc(Cl)c2)C12CCCCC2` (configuration not stated) stands 121 to 122 °C.
`Cc1nsc2ccc(-n3c(=O)c(Cl)c(C(F)(F)F)n(C)c3=O)cc12`: the melting point lay in the range of 252 to 254 °C.
In the case of `CC(=O)NCC1CN(Cc2ccc(F)cc2)CCO1` (configuration not stated), the melting point lay in the range of 120 to 122 °C.
As to `CC1(C(=O)O)CCCc2cc(C3CCCCC3)ccc21` (configuration not stated), the melting point fell in the range of 128 to 129 °C.
For `OC1CSC(Oc2cncc(-c3ncccc3Cl)c2)C(O)C1O` (configuration not stated), the melting point amounted to 193 °C.
Under `CSc1ccc(-c2ccccn2)c2c1C(=O)CC(C)(C)C2` stands 152 to 154 °C; under `O=C(NCC1(O)CCCCCC1)c1cc(-c2ccc(Cl)c(C(=O)O)n2)ccc1Cl`, 146 to 149 °C.
Under `COc1ccc(CC(=O)Nc2c(C)c(C)c3oc(C)c(-c4ccc(C(C)C)cc4)c3c2C)cc1` stands 202 to 204 °C; under `O=C(O)c1ccc(C(=O)O)c(-c2nc3ccccc3s2)c1`, 287 to 288 °C; under `COc1ccc(-c2nc(CCl)nc3cc(OC)c(OC)cc23)cc1OC`, 183 to 184 °C.
Take `CC(C)(C)c1cc(C(c2ccc(C#N)cc2)N2CCCCC2)cc(C(C)(C)C)c1O` (configuration not stated): the melting point lay in the range of 139 to 140 °C.
Under `CCc1c(OCc2ccccc2)nc(OCc2ccccc2)nc1C(C#N)c1cc(C)cc(C#N)c1` (configuration not stated) stands 139 to 141 °C; under `Cc1ccc2nc(-c3ccc4c(c3)sc(=N)n4C)sc2c1`, 146 to 148 °C.
`CCN(CC)c1ccc2nc3c4ccc(Br)cc4c(=Nc4ccccn4)cc-3oc2c1`: the melting point is 204 to 205 °C.
As to `O=C(O)C(Cc1ccc2ccccc2c1)NC(=O)C(CS)C(F)(F)F` (configuration not stated), the melting point was in the range of 165 to 167 °C.
As to `Cn1c(COc2ccc(CC3SC(=O)NC3=O)cc2)nc2ccc(Oc3ccc(NC(=O)c4cc(C(C)(C)C)c(O)c(C(C)(C)C)c4)cc3)cc21` (configuration not stated), the melting point fell in the range of 160 to 162 °C.
Consider `COC(=O)CS(=O)(=O)NOC[C@@H]1NC(=O)[C@@H]1NC(=O)OC(C)(C)C` (relative stereo), for which the melting point was in the range of 128 to 129 °C.
In the case of `CCCCCn1c2c(c3ccc(OC)cc31)CN(S(=O)(=O)c1cccc3c(N(C)C)cccc13)CC2`, the melting point was 71 to 72 °C.
`CCCC1(CC(=O)OCC)OCCc2c1[nH]c1c(C)cc(F)c(Br)c21` (configuration not stated) yielded a melting point of 137 to 138 °C.
`CNC(=S)C1=CC(C)(CF)Oc2ccc([N+](=O)[O-])cc21` (configuration not stated) returned a melting point of 141 to 144 °C.
The compound `Cc1oc(C)c2c1C(=O)c1c(O)ccc(O)c1C2=O` returned a melting point of 255 to 256 °C.
`Cc1cc(CNc2cccc3c2C(=O)N(C2CCC(=O)NC2=O)C3=O)oc1C` (configuration not stated): the melting point fell in the range of 127 to 129 °C.
Under `CCOC(=O)/C=C/c1ccc(N2CCC(=O)CC2)cc1` stands 96 to 98 °C.
With `O=c1cc2c(nn1-c1ccc(Cl)cc1)-c1cccc(Cl)c1S(=O)CC2` (configuration not stated), the melting point lay within 217 to 219 °C.
Consider `COC(=O)[C@@H]1CN(C(=O)OC(C)(C)C)CC[C@@H]1C(=O)O` (relative stereo), for which the melting point was 129 to 136 °C.
Compound `Cc1cc(N2CC=C(C(N)=O)CC2)c2cccc(Br)c2n1` showed a melting point of 225 to 227 °C.
`COC(=O)c1ccc(C(F)(F)F)nc1S(=O)(=O)NC(C)(C)C` returned a melting point of 76 to 83 °C.
In the case of `COC1CCCN(Nc2nc(Cl)nc3c2ncn3C2OC(CCl)C(O)C2O)C1` (configuration not stated), the melting point fell in the range of 200 to 202 °C.
In turn, `CCOC(=O)c1c(C)cc2cnc(-c3ccccc3Cl)nc2c1C` showed a melting point of 69.5 to 70.5 °C.
Consider `CCC1(Br)Cc2c(Cl)ccc(OCC(=O)O)c2C1=O` (configuration not stated), for which the melting point was in the range of 136 to 146 °C.
For `O=c1[nH]c2ccc(Cl)cc2n1CCO`, the melting point turned out to be 160 °C.
With `COc1ccc(N2CCN(c3c(C)c(C)c4c(c3C)CC(C)(CN)O4)CC2)cc1` (configuration not stated), the melting point was 134 to 137 °C.
The compound `COc1ccc(C(C)C)c(NC(=O)CN2CCN(CCCSc3nc4c(C)c(Cl)cc(C(C)C)c4o3)CC2)c1C(C)C` registered a melting point of 126 to 127 °C.
Under `CCOC(=O)C1=C(C)N(C(C)=O)C(c2csc(C)n2)=NC1c1ccc(C)cc1` (configuration not stated) stands 187 to 188 °C; under `Cc1nc(C(=O)Nc2cccc(Cl)c2Cl)c(C)n1-c1ccccc1`, 127 to 129 °C; under `NCc1cccc(-n2cnc3cnc4ccc(Cl)cc4c32)c1`, 148 to 149 °C.
Under `Cc1ncsc1C(=O)CCCSc1nnnn1C` stands 64 to 65 °C; under `COc1ccc(-c2nc3n(c2-c2ccccc2)Cc2ccccc2C3)cc1`, 172 to 173 °C.
The compound `CC(Cc1ccc(OCc2ccccc2)cc1)NC(=O)CC(c1ccccc1)c1ccccc1` (configuration not stated) yielded a melting point of 121 to 125 °C.
Regarding `CCCC[C@@H](C)C(C(=O)O)C(=O)O`, the melting point turned out to be 123 °C.
Under `CCCCn1cnc2c(Oc3ccccc3)nc(Nc3ccc(OC)cc3OC)nc21` stands 97 to 99 °C.
Under `CN(C)C(=O)Cn1c(-c2cccc(Br)c2)nc2cccnc21` stands 144 to 146 °C.
As to `CCOC(=O)c1[nH]c(COC)nc1C(C)(C)O`, the melting point was in the range of 112 to 113 °C.
`CC(C)(CCCc1cccnc1)NC(=O)/C=C/C=C(c1ccc(F)cc1)c1ccc(F)cc1`: the melting point worked out at 164 °C.
Compound `Cc1nsc(OCC(F)(F)F)c1[N+](=O)[O-]` showed a melting point of 63 to 64 °C.
For `Cc1nc(-c2cc3cccc(OC[C@@H](O)CN4CCC(c5ccc6ccccc6c5)CC4)c3o2)no1`, the melting point fell in the range of 169 to 170 °C.
For `CCN(CC)CCC1CCN(CCNC(=O)N2c3ccccc3C(=O)Nc3cccnc32)CC1`, the melting point is 170 to 172 °C.
Under `C[C@@H](NC(=O)c1ccc(-c2ccc(Cl)cc2)s1)[C@](O)(Cn1cncn1)c1ccc(F)cc1F` stands 169 to 170 °C; under `c1ccc(-c2nnc(Nc3ccc4c(c3)ncn4-c3ccccc3)c3ccccc23)cc1`, 227 to 229 °C; under `CN1c2ccc(S(=O)(=O)N3CCOCC3)cc2S(=O)(=O)NC1C1CCCCC1` (configuration not stated), 207 to 210 °C.
`CCOC(=O)CCCOc1cc(C=Cc2ccc3ccc(Br)cc3n2)ccc1Cl` returned a melting point of 215 to 220 °C.
In the case of `C=C(C)C(=O)OCCCCCCN(C)c1ccc(C=Cc2ccc([N+](=O)[O-])cc2)cc1`, the melting point was 109 to 111 °C.
`COc1ccc2c(c1)C(=NO)c1c-2c(N2CCNCC2)nc2ccccc12`: the melting point lay in the range of 146 to 147 °C.
`Nc1ncc2ncn(CCC(CO)CO)c2n1`: the melting point worked out at 154 °C.
`CNC(=O)Oc1ccc2ccccc2c1` showed a melting point of 119 °C.
